Assay results reported in the supplement of paper PMC9013687.
± gives the standard deviation of the averaged measurements.

Legend:
Danio rerio embryo [1] = assay: EC20 Eye size_Decrease; higher = less potent
Experimental: (§1)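 Zebrafish embryos (UFZ-OBI strain) were exposed from 2 hpf for 48 h (2 dpf) or 96 h (4 dpf) at 28 °C; spontaneous tail coiling was scored at 25 hpf. Morphological features from automated image analysis (FishInspector), heart rate and locomotor response were fitted with drc models. Quantal endpoints were dichotomised at 2.5 SD from controls and fitted with a log-logistic model; heart rate, pigmentation and STC were normalised to the replicate control mean. Betamethasone was tested as betamethasone dipropionate, diflorasone as diflorasone diacetate.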

Danio rerio embryo [2] = assay: EC20 Bladder size_Decrease; higher = less potent; settings: exposure time: 4 dpf
Experimental: as §1

Danio rerio embryo [3] = assay: EC20 Curvature_Increase; higher = less potent
Experimental: as §1

Danio rerio embryo [4] = assay: EC20 STC bell shape; higher = less potent; settings: exposure time: 25 h
Experimental: as §1

Danio rerio embryo [5] = test system: Danio rerio embryo
Experimental: as §1

Danio rerio embryo [6] = assay: EC10 Curvature_Increase; higher = less potent
Experimental: as §1

Danio rerio embryo [7] = assay: EC10 Any effect; higher = less potent
Experimental: as §1

Danio rerio embryo [8] = assay: EC20 Any effect; higher = less potent
Experimental: as §1

Danio rerio embryo [9] = assay: EC10 LMR ligth decrease; higher = less potent; settings: exposure time: 4 dpf
Experimental: as §1

Danio rerio embryo [10] = assay: EC20 LMR dark; higher = less potent; settings: exposure time: 4 dpf
Experimental: as §1

Danio rerio embryo [11] = assay: EC50 Curvature_Increase
Experimental: as §1

Danio rerio embryo [12] = assay: EC50 Body length_Decrease
Experimental: as §1

Danio rerio embryo [13] = assay: EC50 Bladder size_Decrease; settings: exposure time: 4 dpf
Experimental: as §1

Danio rerio embryo [14] = assay: EC10 Otolith-eye distance_Decrease; higher = less potent; settings: exposure time: 4 dpf
Experimental: as §1

Danio rerio embryo [15] = assay: EC10 Pigmentation decrease; higher = less potent
Experimental: as §1

Danio rerio embryo [16] = test system: Danio rerio embryo; remark: listed apart in the source
Experimental: as §1

Danio rerio embryo [17] = assay: EC20 Eye-jaw distance_Decrease; higher = less potent; settings: exposure time: 4 dpf
Experimental: as §1

Danio rerio embryo [18] = assay: EC50 Eye-jaw distance_Decrease; settings: exposure time: 4 dpf
Experimental: as §1

Danio rerio embryo [19] = assay: EC10 Body length_Decrease; higher = less potent
Experimental: as §1

Danio rerio embryo [20] = assay: EC50 Eye size_Decrease
Experimental: as §1

Danio rerio embryo [21] = assay: EC10 Eye-jaw distance_Decrease; higher = less potent; settings: exposure time: 4 dpf
Experimental: as §1

Danio rerio embryo [22] = assay: EC10 Eye size_Decrease; higher = less potent
Experimental: as §1

Danio rerio embryo [23] = assay: EC20 Lack of SB; higher = less potent; settings: exposure time: 4 dpf
Experimental: as §1

Danio rerio embryo [24] = settings: exposure time: 4 dpf
Experimental: as §1

Danio rerio embryo [25] = assay: EC20 Pericard size_Increase; higher = less potent; settings: exposure time: 4 dpf
Experimental: as §1

Danio rerio embryo [26] = assay: EC20 Otolith-eye distance_Decrease; higher = less potent; settings: exposure time: 4 dpf
Experimental: as §1

Danio rerio embryo [27] = assay: EC10 STC bell shape; higher = less potent; settings: exposure time: 25 h
Experimental: as §1

Danio rerio embryo [28] = settings: exposure time: 4 dpf; remark: listed apart in the source
Experimental: as §1

Danio rerio embryo [29] = assay: EC20 Body length_Decrease; higher = less potent
Experimental: as §1

Danio rerio embryo [30] = assay: EC10 Pericard size_Increase; higher = less potent; settings: exposure time: 4 dpf
Experimental: as §1

Danio rerio embryo [31] = assay: EC20 Pigmentation decrease; higher = less potent
Experimental: as §1

Danio rerio embryo [32] = assay: EC50 Otolith-eye distance_Decrease; settings: exposure time: 4 dpf
Experimental: as §1

Danio rerio embryo [33] = assay: EC10 Bladder size_Decrease; higher = less potent; settings: exposure time: 4 dpf
Experimental: as §1

Danio rerio embryo [34] = assay: EC10 Lack of SB; higher = less potent; settings: exposure time: 4 dpf
Experimental: as §1

Danio rerio embryo [35] = assay: EC20 LMR ligth decrease; higher = less potent; settings: exposure time: 4 dpf
Experimental: as §1

Danio rerio embryo [36] = assay: EC10 LMR dark; higher = less potent; settings: exposure time: 4 dpf
Experimental: as §1

Danio rerio embryo [37] = assay: EC50 Pericard size_Increase; settings: exposure time: 4 dpf
Experimental: as §1

Danio rerio embryo [38] = assay: EC10 Yolk sac size_Decrease; higher = less potent; settings: exposure time: 4 dpf
Experimental: as §1

Danio rerio embryo [39] = assay: EC50 Yolk sac size_Decrease; settings: exposure time: 4 dpf
Experimental: as §1

Danio rerio embryo [40] = assay: EC20 Yolk sac size_Decrease; higher = less potent; settings: exposure time: 4 dpf
Experimental: as §1

Danio rerio embryo [41] = assay: spontaneous tail coiling frequency (coils/min/embryo); higher = more spontaneous movement; settings: 25 hpf
Experimental: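 Spontaneous tail coilings of zebrafish embryos exposed from 2 hpf were recorded at 24-25 hpf in 1-min videos and detected by a KNIME workflow from grey-value variance. Betamethasone was tested as the dipropionate, diflorasone as the diacetate.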

## CC(=O)Nc1ccc(O)cc1 [Acetaminophen]
Danio rerio embryo [1]; exposure time: 2 dpf
  EC20 Eye size Decrease: 2300 µM
Danio rerio embryo [1]; exposure time: 4 dpf
  EC20 Eye size Decrease: 1740 µM
Danio rerio embryo [2]
  EC20 Bladder size Decrease: 1150 µM
Danio rerio embryo [3]; exposure time: 2 dpf
  EC20 Curvature Increase: 2600 µM
Danio rerio embryo [3]; exposure time: 4 dpf
  EC20 Curvature Increase: 3370 µM
Danio rerio embryo [4]
  EC20 STC bell shape: 6.32 mM
Danio rerio embryo [5]; exposure time: 2 dpf
  EC50 Any effect: 2.69 mM
Danio rerio embryo [5]; exposure time: 4 dpf
  EC50 Any effect: 1.71 mM
  EC50 LMR ligth decrease: 821 µM
Danio rerio embryo [5]; exposure time: 25 h
  EC50 STC bell shape: 8.11 mM
Danio rerio embryo [6]; exposure time: 2 dpf
  EC10 Curvature Increase: 2100 µM
Danio rerio embryo [6]; exposure time: 4 dpf
  EC10 Curvature Increase: 3130 µM
Danio rerio embryo [7]; exposure time: 2 dpf
  EC10 Any effect: 1740 µM
Danio rerio embryo [7]; exposure time: 4 dpf
  EC10 Any effect: 915 µM
Danio rerio embryo [8]; exposure time: 2 dpf
  EC20 Any effect: 2050 µM
Danio rerio embryo [8]; exposure time: 4 dpf
  EC20 Any effect: 1150 µM
Danio rerio embryo [9]
  EC10 LMR ligth decrease: 467 µM
Danio rerio embryo [10]
  EC20 LMR dark: 500 µM
Danio rerio embryo [11]; exposure time: 2 dpf
  EC50 Curvature Increase: 3.76 mM
Danio rerio embryo [11]; exposure time: 4 dpf
  EC50 Curvature Increase: 3.83 mM
Danio rerio embryo [12]; exposure time: 2 dpf
  EC50 Body length Decrease: 3.99 mM
Danio rerio embryo [12]; exposure time: 4 dpf
  EC50 Body length Decrease: 3.94 mM
Danio rerio embryo [13]
  EC50 Bladder size Decrease: 1420 µM
Danio rerio embryo [14]
  EC10 Otolith-eye distance Decrease: 1780 µM
Danio rerio embryo [15]; exposure time: 2 dpf
  EC10 Pigmentation decrease: 1010 µM
Danio rerio embryo [15]; exposure time: 4 dpf
  EC10 Pigmentation decrease: 2380 µM
Danio rerio embryo [16]; exposure time: 2 dpf
  EC50 Pigmentation decrease: 1.58 mM
Danio rerio embryo [16]; exposure time: 4 dpf
  EC50 Pigmentation decrease: 16.3 mM
Danio rerio embryo [17]
  EC20 Eye-jaw distance Decrease: 2410 µM
Danio rerio embryo [18]
  EC50 Eye-jaw distance Decrease: 2.83 mM
Danio rerio embryo [19]; exposure time: 2 dpf
  EC10 Body length Decrease: 3.23 mM
Danio rerio embryo [19]; exposure time: 4 dpf
  EC10 Body length Decrease: 2.79 mM
Danio rerio embryo [20]; exposure time: 2 dpf
  EC50 Eye size Decrease: 2.96 mM
Danio rerio embryo [20]; exposure time: 4 dpf
  EC50 Eye size Decrease: 1.85 mM
Danio rerio embryo [21]
  EC10 Eye-jaw distance Decrease: 2200 µM
Danio rerio embryo [22]; exposure time: 2 dpf
  EC10 Eye size Decrease: 1980 µM
Danio rerio embryo [22]; exposure time: 4 dpf
  EC10 Eye size Decrease: 1670 µM
Danio rerio embryo [23]
  EC20 Lack of SB: 1200 µM
Danio rerio embryo [24]
  EC50 Lack of SB: 1440 µM
Danio rerio embryo [25]
  EC20 Pericard size Increase: 2500 µM
Danio rerio embryo [26]
  EC20 Otolith-eye distance Decrease: 2080 µM
Danio rerio embryo [27]
  EC10 STC bell shape: 5.59 mM
Danio rerio embryo [28]
  EC50 LMR dark: 897 µM
Danio rerio embryo [29]; exposure time: 2 dpf
  EC20 Body length Decrease: 3.5 mM
Danio rerio embryo [29]; exposure time: 4 dpf
  EC20 Body length Decrease: 3.17 mM
Danio rerio embryo [30]
  EC10 Pericard size Increase: 2250 µM
Danio rerio embryo [31]; exposure time: 2 dpf
  EC20 Pigmentation decrease: 1180 µM
Danio rerio embryo [31]; exposure time: 4 dpf
  EC20 Pigmentation decrease: 2730 µM
Danio rerio embryo [32]
  EC50 Otolith-eye distance Decrease: 2.72 mM
Danio rerio embryo [33]
  EC10 Bladder size Decrease: 1020 µM
Danio rerio embryo [34]
  EC10 Lack of SB: 1080 µM
Danio rerio embryo [35]
  EC20 LMR ligth decrease: 570 µM
Danio rerio embryo [36]
  EC10 LMR dark: 337 µM
Danio rerio embryo [37]
  EC50 Pericard size Increase: 3.01 mM

## C[C@@H]1C[C@H]2[C@@H]3CCC4=CC(=O)C=C[C@]4(C)[C@@]3(F)[C@@H](O)C[C@]2(C)[C@@]1(O)C(=O)CO [Dexamethasone]
Danio rerio embryo [2]
  EC20 Bladder size Decrease: 2.7 µM
Danio rerio embryo [5]; exposure time: 4 dpf
  EC50 Any effect: 0.113 mM
Danio rerio embryo [7]; exposure time: 4 dpf
  EC10 Any effect: 1.52 µM
Danio rerio embryo [8]; exposure time: 4 dpf
  EC20 Any effect: 7.45 µM
Danio rerio embryo [13]
  EC50 Bladder size Decrease: 14.3 µM
Danio rerio embryo [23]
  EC20 Lack of SB: 2.7 µM
Danio rerio embryo [24]
  EC50 Lack of SB: 16.2 µM
Danio rerio embryo [38]
  EC10 Yolk sac size Decrease: 2.27 µM
Danio rerio embryo [39]
  EC50 Yolk sac size Decrease: 259 µM
Danio rerio embryo [25]
  EC20 Pericard size Increase: 22.8 µM
Danio rerio embryo [40]
  EC20 Yolk sac size Decrease: 13.1 µM
Danio rerio embryo [30]
  EC10 Pericard size Increase: 5.95 µM
Danio rerio embryo [33]
  EC10 Bladder size Decrease: 1.02 µM
Danio rerio embryo [34]
  EC10 Lack of SB: 0.944 µM
Danio rerio embryo [41]; 2.5 µM
  spontaneous tail coiling frequency: 2.19 ± 1.4
Danio rerio embryo [41]; 25.5 µM
  spontaneous tail coiling frequency: 3.02 ± 0.14
Danio rerio embryo [41]; 63.7 µM
  spontaneous tail coiling frequency: 2.67 ± 0.078
Danio rerio embryo [41]; 127.4 µM
  spontaneous tail coiling frequency: 3.04 ± 0.58
Danio rerio embryo [41]; 254.8 µM
  spontaneous tail coiling frequency: 2.79 ± 1.5
Danio rerio embryo [37]
  EC50 Pericard size Increase: 0.226 mM
